Consider 25 compounds from ChEMBL document CHEMBL1157884, “Synthesis and SAR of heterocyclic carboxylic acid isosteres based on 2-biarylethylimidazole as bombesin receptor subtype-3 (BRS-3) agonists for the treatment of obesity” (Bioorg Med Chem Lett, 2010).

The target in series [1] is T1, Bombesin receptor subtype-3 (Homo sapiens, UniProt P32247).
T1 sequence (P32247 whole entry): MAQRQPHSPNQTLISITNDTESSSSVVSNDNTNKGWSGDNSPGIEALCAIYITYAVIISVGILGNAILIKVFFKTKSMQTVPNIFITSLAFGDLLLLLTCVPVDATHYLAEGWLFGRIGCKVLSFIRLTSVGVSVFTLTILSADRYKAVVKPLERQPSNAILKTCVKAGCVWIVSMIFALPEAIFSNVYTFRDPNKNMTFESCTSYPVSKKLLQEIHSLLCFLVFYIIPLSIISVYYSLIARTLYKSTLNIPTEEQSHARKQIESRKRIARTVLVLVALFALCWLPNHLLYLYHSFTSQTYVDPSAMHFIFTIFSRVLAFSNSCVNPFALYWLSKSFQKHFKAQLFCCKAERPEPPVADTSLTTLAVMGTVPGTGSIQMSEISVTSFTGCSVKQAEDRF
Nature of the series: Agonist activity at human BRS3. It counts as functional.

The target of series [2] is T1, Bombesin receptor subtype-3. As to the kind of experiment: Binding affinity to human BRS3.
The target of series [3] is T2, Bombesin receptor subtype-3 (Homo sapiens) (UniProt P32247).
T2 sequence (whole entry): T1 sequence (P32247 whole entry)
As to the kind of experiment: Agonist activity at human BRS3 relative to [D-Tyr6,b-Ala11,Phe13,Nle14]-Bombesin. It is filed as functional.

In series [4] the target is T3, Bombesin receptor subtype-3 (Mus musculus) (UniProt O54798).
T3 sequence (whole entry): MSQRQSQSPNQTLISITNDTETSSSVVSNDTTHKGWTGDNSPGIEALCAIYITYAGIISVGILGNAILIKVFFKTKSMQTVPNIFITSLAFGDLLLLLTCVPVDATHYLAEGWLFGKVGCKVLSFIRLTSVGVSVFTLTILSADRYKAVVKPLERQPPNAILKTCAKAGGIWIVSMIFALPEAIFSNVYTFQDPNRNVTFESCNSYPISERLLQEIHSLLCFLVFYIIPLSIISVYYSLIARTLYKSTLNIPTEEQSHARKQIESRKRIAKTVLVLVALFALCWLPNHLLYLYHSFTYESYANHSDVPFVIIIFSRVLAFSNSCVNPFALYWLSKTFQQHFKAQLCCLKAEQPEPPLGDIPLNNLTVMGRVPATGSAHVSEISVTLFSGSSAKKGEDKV
Nature of the series: Agonist activity at mouse BRS3 relative to [D-Tyr6,b-Ala11,Phe13,Nle14]-Bombesin. It is filed as functional.

Series [5] in a line: Oral bioavailability in rat. It is filed as ADME, organism-based. As to conditions: in vivo.
Series [6] addresses T4, Bombesin receptor subtype-3 (Mus musculus, UniProt O54798).
T4 sequence (O54798 whole entry): T3 sequence (whole entry)
Nature of the series: Agonist activity at mouse BRS3. It counts as functional.

Series [7] in a line: Ratio of drug level in brain to plasma in rat at 1 mg/kg, iv after 1 hr. On the set-up: dose 1 mg/kg, route intravenous. It is filed as ADME, organism-based.
Series [8] can be described thus: Total plasma concentration in rat at 1 mg/kg, iv after 1 hr. It counts as ADME, organism-based. On the set-up: dose 1 mg/kg, route intravenous.
The nature of series [9]: Drug level in rat brain at 1 mg/kg, iv after 1 hr. It counts as ADME, organism-based. On the set-up: dose 1 mg/kg, route intravenous. As to conditions: read-out: Drug uptake.
Series [10] in a line: Drug level in rat brain at 2 mg/kg, iv after 1 hr. It counts as ADME, organism-based. Further details: dose 2 mg/kg, route intravenous. The following applies: read-out: Drug uptake.
Series [11] is described as follows: Total plasma concentration in rat at 2 mg/kg, iv after 1 hr. Further details: dose 2 mg/kg, route intravenous. It is filed as ADME, organism-based.
Series [12] can be described thus: Ratio of drug level in brain to plasma in rat at 2 mg/kg, iv after 1 hr. It counts as ADME, organism-based. Further details: dose 2 mg/kg, route intravenous.

Turning to `CCC(C)(C)Cc1c[nH]c(CCc2ccc(N3CCCC[C@@H]3c3nnn[nH]3)cc2)n1`, the EC50 in series [1] was found to be 0.015 µM; in series [6], 0.016 µM. Besides, in series [2], the IC50 was determined as 0.0062 µM. Also, the Activity in series [3] was found to be 100%; in series [4], 119%. Moreover, in series [5], the bioavailability was found to be 4.9%.

For `CCC(C)(C)Cc1c[nH]c(CCc2ccc(-c3ccccc3OCc3nc(C(F)(F)F)n[nH]3)cc2)n1`, the EC50 in [1] is 0.129 µM; in series [6] it was 0.012 µM. Besides, the IC50 in series [2] is 0.127 µM. The Activity in [3] worked out at 89%; in series [4] it was 122%.

As to `CCC(C)(C)Cc1c[nH]c(CCc2ccc(-c3ccccc3OCc3nc(N)n[nH]3)cc2)n1`, in series [7], the Kp at 1 h came to 0.016. Besides, the values for the EC50 in series [1] and in series [6] were 0.078 µM and 0.0046 µM, respectively. In series [2], this compound gave an IC50 of 0.027 µM. The results for the concentration at 1 h in series [8] and in [9] were 860 nM and 10 nM, respectively. Further, the Activity in series [3] came out at 98%; in series [4], 115%.

Consider `CCC(C)(C)Cc1c[nH]c(CCc2ccc(N3CCCC[C@@H]3c3ncn[nH]3)cc2)n1`, for which the results for the Activity in series [3] and in series [4] were 96% and 117%, respectively.

With `CCC(C)(C)Cc1c[nH]c(CCc2ccc3c(c2)CN(C)C(=O)c2ccccc2-3)n1`, the Activity in series [3] stood at 96%; in series [4], 119%.

For the compound `CCC(C)(C)Cc1c[nH]c(CCc2ccc(-c3ccccc3OCC(=O)O)cc2)n1`, the Activity in series [3] came out at 97%.

Consider `c1ccc(-c2nnn[nH]2)c(-c2ccc(CCc3ncc(CC4CCCC4)[nH]3)cc2)c1`, for which the EC50 in series [1] was 0.056 µM; in series [6], 0.016 µM. Also, the IC50 in series [2] is 0.015 µM.

In the case of `CCC(C)(C)Cc1c[nH]c(CCc2ccc(-c3ccccc3OCc3ncn[nH]3)cc2)n1`, the Activity in [3] came to 113%.

`CCC(C)(C)Cc1c[nH]c(CCc2ccc3c(c2)CNC(=O)c2ccccc2-3)n1`: the Activity was 98% in [3] and 118% in series [4].

On to `CCC(C)(C)Cc1cnc(CCc2ccc(N3CCCC[C@@H]3c3nnc[nH]3)cc2)[nH]1`, for which the EC50 came to 0.042 µM in series [1] and 0.013 µM in series [6]. This compound also displayed an IC50 in series [2] of 0.026 µM. Moreover, in series [5], the bioavailability was found to be 4.8%.

Take `CCC(C)(C)Cc1c[nH]c(CCc2ccc(N3CCCC[C@@H]3C(=O)O)cc2)n1`: the Kp at 1 h in series [7] was determined as 0.04. The EC50 came to 0.024 µM in series [1] and 0.012 µM in series [6]. The compound further yielded an IC50 in series [2] of 0.0053 µM. The concentration at 1 h in series [8] came out at 210 nM; in series [9], 10 nM. Moreover, the figures for the Activity in series [3] and in series [4] were 100% and 111%, respectively.

Take `CCC(C)(C)Cc1c[nH]c(CCc2ccc(-c3ccccc3O)cc2)n1`: the EC50 in series [1] stood at 0.133 µM; in [6], 0.034 µM. For the same compound, the IC50 in series [2] worked out at 0.031 µM. The Activity in [3] turned out to be 97%; in [4], 113%.

`CCC(C)(C)Cc1c[nH]c(CCc2ccc(-c3ccccc3OCc3cnn[nH]3)cc2)n1` returned an Activity in [3] of 97%.

In the case of `CCC(C)(C)Cc1cnc(CCc2ccc(-c3ccccc3OCc3cnn[nH]3)cc2)[nH]1`, in series [1], the EC50 was 0.399 µM. The IC50 in series [2] was 0.083 µM.

With `CCC(C)(C)Cc1c[nH]c(CCc2ccc(N3CCCc4cn[nH]c43)cc2)n1`, the figures for the EC50 in series [1] and in [6] were 0.042 µM and 0.013 µM, respectively. Moreover, the Activity was 101% in series [3] and 120% in [4]. The bioavailability in series [5] worked out at 29%.

In the case of `CCC(C)(C)Cc1c[nH]c(CCc2ccc(-c3ccccc3OCc3nnn[nH]3)cc2)n1`, the EC50 in series [1] worked out at 0.03 µM; in series [6], 0.0029 µM. Besides, the concentration at 1 h in series [10] was determined as 10 nM; in series [11] it was 1250 nM. Also, the Activity turned out to be 111% in series [3] and 109% in series [4]. Further, in series [12], the Kp at 1 h was 0.01.

As for `CCC(C)(C)Cc1cnc(CCc2ccc3c(c2)CNC(=O)c2ccccc2-3)[nH]1`, the Kp at 1 h in series [7] amounted to 0.068. Also, the EC50 worked out at 0.029 µM in [1] and 0.011 µM in series [6]. In addition, the IC50 in [2] stood at 0.01 µM. Further, the concentration at 1 h was 310 nM in [8] and 20 nM in series [9].

For `CCC(C)(C)Cc1cnc(CCc2ccc3c(c2)CN(C)C(=O)c2ccccc2-3)[nH]1`, the EC50 was found to be 0.056 µM in [1] and 0.027 µM in series [6]. Moreover, the IC50 in [2] turned out to be 0.02 µM.

On to `CCC(C)(C)Cc1cnc(CCc2ccc(-c3ccccc3OCc3n[nH]c(=O)[nH]3)cc2)[nH]1`, for which, in series [1], the EC50 came out at 0.336 µM. The compound further registered an IC50 in [2] of 0.031 µM.

In series [1], `CCC(C)(C)Cc1c[nH]c(CCc2ccc(-c3ccccc3OCc3nnc[nH]3)cc2)n1` displayed an EC50 of 0.172 µM. In series [2], this compound had an IC50 of 0.022 µM.

In [1], `CCC(C)(C)Cc1cnc(CCc2ccc(-c3ccccc3OCC(=O)O)cc2)[nH]1` registered an EC50 of 0.054 µM. Further, the IC50 in series [2] was determined as 0.103 µM.

Take `CCC(C)(C)Cc1c[nH]c(CCc2ccc(-c3ccccc3OCc3nc(=S)[nH][nH]3)cc2)n1`: the Kp at 1 h in [7] was 0.006. Besides, the EC50 was found to be 0.041 µM in series [1] and 0.0058 µM in series [6]. In series [2], this compound yielded an IC50 of 0.0061 µM. Moreover, the concentration at 1 h in [8] was determined as 4960 nM; in series [9] it was 30 nM. Besides, the Activity in series [3] came out at 114%; in series [4] it was 120%.

As for `c1ccc(-c2nnn[nH]2)c(-c2ccc(CCc3nc(CC4CCCC4)c[nH]3)cc2)c1`, the Activity in [3] is 112%; in [4], 85%.

`O=C1NC(=O)C(c2ccccc2-c2ccc(CCC3N=CC(CC4CCCC4)=N3)cc2)S1` (stereo unspecified) yielded an EC50 in series [1] of 1.77 µM. The same compound returned an IC50 in series [2] of 0.287 µM. The compound further gave an Activity in series [3] of 94%.

As for `CCC(C)(C)Cc1c[nH]c(CCc2ccc(-c3ccccc3OCc3nc(=O)[nH][nH]3)cc2)n1`, the Activity in [3] was determined as 107%.

As usually defined, the EC50 is the concentration needed to bring the measured effect to its halfway point. By IC50 is commonly meant the concentration needed to halve the response being measured. Low readings indicate inhibition by little substance, high ones a need for much substance. As a reminder, the bioavailability is dose-corrected exposure relative to a reference, in per cent. A low value points to little systemic uptake. For orientation: Kp means tissue or fluid exposure divided by exposure in the circulation.
